According to patent publication US20140090094A1, “MODULATORS OF SLC22A7” (BAYER INTELLECTUAL PROPERTY GmbH, priority 2011, published 2014):

How the values were obtained:
Type in all cases: cell-based
[1] = molecular target: T1, OAT2r (Rattus norvegicus, UniProt Q5RLM2); assay: trans-stimulation of efflux of 3H-orotic acid via OAT2r; settings: for trans-stimulation of efflux of 3H-orotic acid (in words): 1 mmol/l compound in uptake buffer, 1 min, preloaded cells
T1 construct: expressed in transfected cells
T1 sequence (Q5RLM2 1-535): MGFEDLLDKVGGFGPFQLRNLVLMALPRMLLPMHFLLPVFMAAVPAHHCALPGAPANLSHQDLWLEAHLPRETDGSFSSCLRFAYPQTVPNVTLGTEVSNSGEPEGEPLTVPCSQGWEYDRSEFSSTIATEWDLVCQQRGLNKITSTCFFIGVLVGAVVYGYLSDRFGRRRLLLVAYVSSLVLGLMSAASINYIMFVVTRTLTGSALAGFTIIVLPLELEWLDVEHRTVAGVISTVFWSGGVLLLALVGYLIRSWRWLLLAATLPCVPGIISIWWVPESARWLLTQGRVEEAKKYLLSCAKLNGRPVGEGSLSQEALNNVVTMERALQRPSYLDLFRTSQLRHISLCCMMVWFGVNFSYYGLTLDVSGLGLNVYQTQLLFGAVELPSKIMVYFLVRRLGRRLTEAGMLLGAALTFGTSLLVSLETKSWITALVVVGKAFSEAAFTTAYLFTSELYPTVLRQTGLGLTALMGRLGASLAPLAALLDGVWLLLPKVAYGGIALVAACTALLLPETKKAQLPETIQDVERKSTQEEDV

[2] = molecular target: T2, OAT2h mutant E441Q (Homo sapiens, UniProt Q9Y694, E443Q); assay: uptake by OAT2h mutant E441Q (eGFP chimera) in 293 cells; settings: 1 min, 37° C., 0.1 μmol/l radiolabeled solute
T2 construct: expressed in transfected cells; host or cells: 293 cells (HEK-293), doxycycline-inducible
T2 sequence (Q9Y694 1-546 isoform Q9Y694-2 E441Q): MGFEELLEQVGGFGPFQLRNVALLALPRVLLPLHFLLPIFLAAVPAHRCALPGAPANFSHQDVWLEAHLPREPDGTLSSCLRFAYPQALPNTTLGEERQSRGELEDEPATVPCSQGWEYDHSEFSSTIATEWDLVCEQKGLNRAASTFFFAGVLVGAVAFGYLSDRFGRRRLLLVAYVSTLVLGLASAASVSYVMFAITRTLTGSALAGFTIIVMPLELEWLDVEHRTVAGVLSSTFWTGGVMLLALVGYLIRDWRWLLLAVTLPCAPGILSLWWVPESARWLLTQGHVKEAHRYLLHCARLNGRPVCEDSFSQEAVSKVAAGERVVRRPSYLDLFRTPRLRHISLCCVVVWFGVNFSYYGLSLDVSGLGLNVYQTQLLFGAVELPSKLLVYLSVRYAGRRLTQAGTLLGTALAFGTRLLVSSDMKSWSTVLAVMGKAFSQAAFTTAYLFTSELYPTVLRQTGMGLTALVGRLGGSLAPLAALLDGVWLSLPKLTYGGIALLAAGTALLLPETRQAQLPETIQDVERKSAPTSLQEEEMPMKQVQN
Method: 293 cells transfected for expression of eGFP chimera of OAT2h wild-type or OAT2hE441Q in dishes were incubated (1 min, 37° C.) with 0.1 μmol/l radiolabeled solute in uptake buffer, washed, and lysed. Cell lysates were analyzed by liquid scintillation counting.
In transmembrane segment 10, the OAT2 orthologues from human, horse, pig, cattle, rabbit, rat, mouse, opossum, and chicken uniformly contain a glutamate (E441 in OAT2h) that is absent in the related carriers OAT1, OAT3, and SLC22A13. Since in other SLC22 family members transmembrane segment 10 is involved in substrate discrimination (Bacher et al. Biochim Biophys Acta 2009; 1788:2594-2602.), the negative charge of the glutamate side chain could specifically attract the ammonium residue of the glutamate substrate. To test this hypothesis, a mutant of OAT2h was created with glutamine at position 441 (E441 Q); eGFP was attached to the C-terminus to verify unaltered membrane trafficking (FIG. 23). […] It follows that E441 is essential for transport of glutamate. […]

[3] = molecular target: T1, OAT2r; assay: time course of uptake into OAT2r-expressing 293 cells; settings: for clearance kin: 10 μmol/l unlabeled substrate, 37° C., OAT2r-expressing cells; for factor by which expression of OAT2r increased the clearance: kin on versus off

intracellular plateau ([3]; 10 μmol/l unlabeled orotic acid, after 60 min, LC-MS/MS) [nmol/mg protein]	intracellular concentration corresponding to plateau ([3]; calculated with an intracellular water space of 6.7 μl/mg protein) [µmol/L]	clearance kin ([3]; time course) [μl min-1 mg protein-1]	factor by which expression of OAT2r increased the clearance ([3]; time course)	kout ([3]; time course, unlabeled orotic acid, expression on) [min⁻¹]	cell content directly after washing ([1]; 1 h, 37° C. preloading with 100 μmol/l 3H-orotic acid, OAT2r-expressing cells, n=4) [nmol/mg protein]	SMILES	trans-stimulation of efflux of 3H-orotic acid (in words) [1]	uptake with mutant E441Q versus wild-type (in words) [2]
–	–	–	–	–	–	N[C@@H](CCC(=O)O)C(=O)O [glutamate]	accelerated efflux	completely abolished
5.8	870	50.1±6.4	86	0.09 ± 0.01	56±3	O=C(O)c1cc(=O)[nH]c(=O)[nH]1 [orotic acid]	markedly accelerated efflux	much reduced, but still evident
–	–	5.1±1.4	~50	–	–	C[n+]1cccc(C(=O)[O-])c1 [trigonelline]	–	–
